From patent publication US8492559B2, “Substituted indole compounds” (Gruenenthal GmbH, priority 2009, dated 2013)

Biological target: T1, human B1R receptor (hB1R) (Homo sapiens, UniProt P46663)
T1 construct: expressed in transfected cells; host or cells: CHO K1 cells
T1 sequence (P46663 1-353): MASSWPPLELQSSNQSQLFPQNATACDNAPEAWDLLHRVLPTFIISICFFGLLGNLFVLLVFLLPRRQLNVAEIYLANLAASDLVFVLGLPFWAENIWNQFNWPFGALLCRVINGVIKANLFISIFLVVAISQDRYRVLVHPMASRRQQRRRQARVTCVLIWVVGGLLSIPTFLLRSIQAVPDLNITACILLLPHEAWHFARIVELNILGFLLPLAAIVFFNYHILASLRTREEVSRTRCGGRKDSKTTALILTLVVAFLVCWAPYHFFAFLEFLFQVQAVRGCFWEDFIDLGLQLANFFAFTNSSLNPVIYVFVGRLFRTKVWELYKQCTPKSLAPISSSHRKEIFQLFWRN
Experiment: Functional investigation on the bradykinin 1 receptor (B1R), FLIPR Ca2+ assay, hB1R cells
Type: cell-based
Conditions: CHO-K1, 10 μM test substance; CHO K1 cells with human B1R; agonist Lys-Des-Arg9 bradykinin; % of maximum achievable inhibition; read-out: B1R antagonism, human [10 μM] % inhibition
Procedure: The agonistic or antagonistic action of substances can be quantified on the bradykinin 1 receptor (B1R) of the human and rat species with ectopically expressing cell lines (CHO K1 cells) and with the aid of a Ca^2+-sensitive dye (Fluo-4) using a fluorescent imaging plate reader (FLIPR). The indication in % activation is based on the Ca^2+ signal after addition of Lys-Des-Arg^9 bradykinin (0.5 nM) or Des-Arg^9 bradykinin (100 nM). Antagonists lead to a suppression of the Ca^2+ influx following administration of the agonist. The % inhibition in comparison with the maximum achievable inhibition is indicated.
1. Functional Investigation on the Bradykinin 1 Receptor (B1R)
The agonistic or antagonistic action of substances can be determined on the bradykinin 1 receptor (B1R) of the human and rat species with the following assay. According to this assay, the Ca^2+ inflow through the channel is quantified with the aid of a Ca^2+-sensitive dye (Fluo-4 type, Molecular Probes Europe BV, Leiden, Netherlands) in a fluorescent imaging plate reader (FLIPR, Molecular Devices, Sunnyvale, USA).
Chinese hamster ovary cells (CHO K1 cells) which are stably transfected with the human B1R gene (hB1R cells) or the B1R gene of the rat (rB1R cells) are used. For functional investigations these cells are plated-out onto black 96-well plates with a clear base (BD Biosciences, Heidelberg, Germany or Greiner, Frickenhausen, Germany) in a density of 20,000-35,000 cells/well. Overnight the cells are incubated at 37° C. and 5% CO2 in culture medium (hB1R cells: Ham's Nutrient Mixture F12, Gibco Invitrogen GmbH, Karlsruhe, Germany or DMEM, Sigma-Aldrich, Taufkirchen, Germany; rB1R cells: D-MEM/F12, Gibco Invitrogen, Karlsruhe, Germany) with 10 vol. % FBS (foetal bovine serum, Gibco Invitrogen GmbH, Karlsruhe, Germany or PAN Biotech GmbH, Aidenbach, Germany).
On the following day the cells are loaded with 2.13 μM Fluo-4 (Molecular Probes Europe BV, Leiden, Netherlands) in HBSS buffer (Hank's buffered saline solution, Gibco Invitrogen GmbH, Karlsruhe, Germany) with 2.5 mM probenecid (Sigma-Aldrich, Taufkirchen, Germany) and 10 mM HEPES (Sigma-Aldrich, Taufkirchen, Germany) for 60 min at 37° C. The plates are subsequently washed twice with HBSS buffer, and HBSS buffer which additionally contains 0.1% BSA (bovine serum albumin; Sigma-Aldrich, Taufkirchen, Germany), 5.6 mM glucose and 0.05% gelatine (Merck KGaA, Darmstadt, Germany) is added. After a further incubation of 20 minutes at room temperature, the plates are inserted into the FLIPR for Ca^2+ measurement.
Alternatively they are washed with buffer A (15 mM HEPES, 80 mM NaCl, 5 mM KCl, 1.2 mM CaCl2, 0.7 mM MgSO4, 2 g/l glucose, 2.5 mM probenecid) and loaded with buffer A with added 2.5 μM Fluo-4 and 0.025% Pluronic F127 (Sigma-Aldrich, Taufkirchen, Germany). The cells are then washed twice with buffer A and incubated for 30 minutes with buffer A, which additionally contains 0.05% BSA and 0.05% gelatine, at room temperature and then used for Ca^2+ measurement in the FLIPR. The Ca^2+-dependent fluorescence is measured here before and after addition of substances (λex=488 nm, λem=540 nm). The quantification is performed by measuring the highest fluorescence intensity (FC, fluorescence counts) over time.
The FLIPR protocol comprises two additions of substance. Test substances (10 μM) are first pipetted onto the cells and the Ca^2+ inflow is compared with the control (hB1R: Lys-Des-Arg^9 bradykinin>=50 nM; rB1R: Des-Arg^9 bradykinin 10 μM). The value in % activation based on the Ca^2+ signal after addition of Lys-Des-Arg^9 bradykinin (>=50 nM) or Des-Arg^9 bradykinin (10 μM) is obtained therefrom. After incubation for 10-20 minutes, Lys-Des-Arg^9 bradykinin (hB1R) or Des-Arg^9 bradykinin (rB1R) is applied in the EC80 concentration and the inflow of Ca^2+ is likewise determined.
Antagonists lead to a suppression of the Ca^2+ inflow. The % inhibition in comparison with the maximum achievable inhibition is calculated. […]

SMILES	inhibition at 10 µM [%]
COc1cc(C)c(S(=O)(=O)Nc2cccc3ccn(CC(=O)N4CCC5(CCN(c6ccncc6)CC5)C4)c23)c(C)c1 [Compound G-14, 4-Methoxy-2,6-dimethyl-N-(1-(2-oxo-2-(8-(pyridin-4-yl)-2,8-diazaspiro[4.5]decan-2-yl)ethyl)-1H-indol-7-yl)benzenesulfonic acid amide]	99
O=C(Cn1ccc2ccc(N3Cc4cccc(Cl)c4C3=O)cc21)N1CCC2(CC1)CC(c1ccncc1)=NO2 [Compound G-15, 7-Chloro-2-(1-(2-oxo-2-(3-(pyridin-4-yl)-1-oxa-2,8-diazaspiro[4.5]dec-2-en-8-yl)ethyl)-1H-indol-6-yl)isoindolin-1-one]	81
COc1cc(C)c(S(=O)(=O)Nc2cccc3ccn(CC(=O)N4CCC5(CCC(N6CCC6)CC5)CC4)c23)c(C)c1 [Compound G-18, N-(1-(2-(9-(azetidin-1-yl)-3-azaspiro[5.5]undecan-3-yl)-2-oxoethyl)-1H-indol-7-yl)-4-methoxy-2,6-dimethylbenzenesulfonic acid amide]	99
O=C(Cn1ccc2ccc(N3Cc4cccc(Cl)c4C3=O)cc21)N1CCC2(CCC(Oc3ccncc3)CC2)CC1 [Compound G-19, 7-Chloro-2-(1-(2-oxo-2-(9-(pyridin-4-yloxy)-3-azaspiro[5.5]undecan-3-yl)ethyl)-1H-indol-6-yl)isoindolin-1-one]	97
O=C(Cn1ccc2ccc(N3Cc4cccc(Cl)c4C3=O)cc21)N1CCC2(CCC(N3CC(F)(F)C3)CC2)CC1 [Compound G-20, 7-Chloro-2-(1-(2-(9-(3,3-difluoroazetidin-1-yl)-3-azaspiro[5.5]undecan-3-yl)-2-oxoethyl)-1H-indol-6-yl)isoindolin-1-one]	43
COc1cc(C)c(S(=O)(=O)Nc2cccc3ccn(CC(=O)N4CCC5(CCC(Oc6ccncc6)CC5)CC4)c23)c(C)c1 [Compound G-22, 4-Methoxy-2,6-dimethyl-N-(1-(2-oxo-2-(9-(pyridin-4-yloxy)-3-azaspiro[5.5]undecan-3-yl)ethyl)-1H-indol-7-yl)benzenesulfonic acid amide]	100
COc1cc(C)c(S(=O)(=O)NCc2cccc3ccn(CC(=O)N4CCC5(CC4)CCN(c4ccncc4)CC5)c23)c(C)c1 [Compound G-24, 4-Methoxy-2,6-dimethyl-N-[[1-[2-oxo-2-(9-pyridin-4-yl-3,9-diazaspiro[5.5]undecan-3-yl)-ethyl]-1H-indol-7-yl]-methyl]-benzenesulfonic acid amide]	98
Cc1cccc2c1C(=O)N(c1ccc3ccn(CC(=O)N4CCC5(CC4)CCN(c4ccncc4)CC5)c3c1)C2 [Compound G-26, 7-Methyl-2-[1-[2-oxo-2-(9-pyridin-4-yl-3,9-diazaspiro[5.5]undecan-3-yl)-ethyl]-1H-indol-6-yl]-2,3-dihydro-isoindol-1-one]	98
Cc1ccc2n1C(=O)N(c1ccc3ccn(CC(=O)N4CCC5(CC4)CCN(c4ccncc4)CC5)c3c1)C2 [Compound G-27, 5-Methyl-2-[1-[2-oxo-2-(9-pyridin-4-yl-3,9-diazaspiro[5.5]undecan-3-yl)-ethyl]-1H-indol-6-yl]-1,2-dihydro-pyrrolo[2,1-e]imidazol-3-one]	96
COc1cc(C)c(S(=O)(=O)Nc2ccc3ccn(CC(=O)N4CCC(N5CCN(C)CC5)CC4)c3c2)c(C)c1 [G_CC-2, 4-Methoxy-2,6-dimethyl-N-[1-[2-[4-(4-methyl-piperazin-1-yl)-piperidin-1-yl]-2-oxo-ethyl]-1H-indol-6-yl]-benzenesulfonic acid amide]	46
Cc1cc(S(=O)(=O)Nc2ccc3ccn(CC(=O)N4CCN(CC5CCN(C)CC5)CC4)c3c2)c(C)cc1Cl [G_CC-8, 4-Chloro-2,5-dimethyl-N-[1-[2-[4-[(1-methyl-piperidin-4-yl)-methyl]-piperazin-1-yl]-2-oxo-ethyl]-1H-indol-6-yl]-benzenesulfonic acid amide]	26
COc1cc(C)c(S(=O)(=O)Nc2cccc3ccn(CC(=O)N4CCC5(CC4)CCN(Cc4ccccc4)C5=O)c23)c(C)c1 [G_CC-32, N-[1-[2-(3-Benzyl-4-oxo-3,8-diazaspiro[4.5]decan-8-yl)-2-oxo-ethyl]-1H-indol-7-yl]-4-methoxy-2,6-dimethyl-benzenesulfonic acid amide]	73

The next lines start with the values.

inhibition at 10 µM [%]	SMILES
100	COc1cc(C)c(S(=O)(=O)Nc2cccc3ccn(CC(=O)N4CCC(N5CCc6cc(CN7CCCCC7)ccc6C5)C4)c23)c(C)c1 (stereo not drawn) [Compound G-16, 4-Methoxy-2,6-dimethyl-N-(1-(2-oxo-2-(3-(6-(piperidin-1-ylmethyl)-3,4-dihydroisoquinolin-2(1H)-yl)pyrrolidin-1-yl)ethyl)-1H-indol-7-yl)benzenesulfonic acid amide]
100	COc1cc(C)c(S(=O)(=O)Nc2cccc3ccn(CC(=O)N4CCC5(CCN(c6ccncc6)C5)C4)c23)c(C)c1 (stereo not drawn) [Compound G-17, 4-Methoxy-2,6-dimethyl-N-(1-(2-oxo-2-(7-(pyridin-4-yl)-2,7-diazaspiro[4.4]nonan-2-yl)ethyl)-1H-indol-7-yl)benzenesulfonic acid amide]
99	O=C(Cn1ccc2ccc(N3Cc4cccc(Cl)c4C3=O)cc21)N1CCC2(CCC(N3CCC3)CC2)CC1 [Compound G-21, 2-(1-(2-(9-(Azetidin-1-yl)-3-azaspiro[5.5]undecan-3-yl)-2-oxoethyl)-1H-indol-6-yl)-7-chloroisoindolin-1-one]
100	Cn1c2c(c3c(Cl)cccc31)C(=O)N(c1ccc3ccn(CC(=O)N4CCC5(CC4)CCN(c4ccncc4)CC5)c3c1)C2 [Compound G-23, 8-Chloro-4-methyl-2-[1-[2-oxo-2-(9-pyridin-4-yl-3,9-diazaspiro[5.5]undecan-3-yl)-ethyl]-1H-indol-6-yl]-3,4-dihydro-2H-pyrrolo[3,4-b]indol-1-one]
80	O=C(Cn1ccc2ccc(N3CCn4c(c(Cl)c5ccccc54)C3=O)cc21)N1CCC2(CC1)CCN(c1ccncc1)CC2 [Compound G-31, 10-Chloro-2-[1-[2-oxo-2-(9-pyridin-4-yl-3,9-diazaspiro[5.5]undecan-3-yl)-ethyl]-1H-indol-6-yl]-3,4-dihydro-2H-pyrazino[1,2-a]indol-1-one]
93	O=C(Cn1ccc2ccc(N3CCn4ccc(Cl)c4C3=O)cc21)N1CCC2(CC1)CCN(c1ccncc1)CC2 [Compound G-33, 8-Chloro-2-[1-[2-oxo-2-(9-pyridin-4-yl-3,9-diazaspiro[5.5]undecan-3-yl)-ethyl]-1H-indol-6-yl]-3,4-dihydro-2H-pyrrolo[1,2-a]pyrazin-1-one]
